Laboratory results: patent US10188737B2, “Stabilized pharmaceutical composition” (ASTELLAS PHARMA INC., priority 2015, dated 2019)

Legend:
[1] = Water activity value of pharmaceutical additives, humidity conditions versus dry state; type: physicochemical; settings: N = 3; for Water activity value, Opened / Water activity value, Sealed: additive alone; for Water activity value, Opened: 25° C. and 60% RH (opened) for 3 days; for Water activity value, Sealed: in bottles at 25° C. for 3 days in the presence of a desiccant; for Water activity value, Difference: opened minus sealed
Protocol: A water activity meter (AQUA LAB Series 4TE (AQUA LAB)) was used to measure the water activity value of each pharmaceutical composition (including a capsule shell) at 25° C.
Pharmaceutical additives (5000 mg each) used in Examples 4 to 11 and Comparative Examples 1 to 2 were allowed to stand in bottles (30 mL) at 25° C. for 3 days in the presence of a desiccant (2 g), and the water activity value was measured under the same conditions as those of Experimental Example 1. Further, the same samples were allowed to stand in bottles under storage conditions of 25° C. and 60% RH (opened) for 3 days, and the water activity value was measured under the same conditions as those of Experimental Example 1
The difference between the water activity value after the storage in the opened state and the water activity value after the storage in the sealed state is summarized in Table 7.

[2] = system: epidermal growth factor receptor (EGFR) mutant kinase; settings: disclosed in Patent literature 1 (WO 2013/108754); cited from earlier work
[3] = Stability of mixtures with pharmaceutical additives, sealed bottles in aluminum bags, 25° C. or 40° C., related substance (HPLC); type: physicochemical; settings: dimer of compound A (RRT about 1.34), N = 2, values less than 0.05% (quantitative limit) are reference values
Protocol: (§1) The amounts of generated related substances were measured by a high performance liquid chromatographic method (an HPLC method). The amount of a related substance is calculated by measuring the peak area of each related substance contained in a pharmaceutical composition by the HPLC method, and dividing the peak area of a dimer of compound A (a related substance detected at a relative retention time of about 1.34) by the total peak area of all related substances, including compound A or a pharmaceutically acceptable salt thereof and the dimer of compound A. • Measurement wavelength: 210 nm • Column: YMC-Triart C18 (4.6 mm×150 mm, 3 μm) • Column temperature: a constant temperature around 40° C. • Mobile phase: A mixed solution of 45 mM perchloric acid aqueous solution and acetonitrile • Flow rate: about 1.2 mL/min. • Injection amount: 10 μg (corresponding to compound A) (Measurement of Water Activity)
The mixtures obtained in Examples 4 to 11 and Comparative Examples 1 to 2, as well as compound A monomethanesulfonate, were put into plastic bottles. […] After the storage, the amount of a related substance (the amount of a dimer of compound A at a relative retention time of about 1.34) was measured under the same conditions as those of Experimental Example 1. […]

[4] = Stability of mixture with milled lactose hydrate in capsules, sealed plastic bottles, 25° C. and 60% RH, related substance (HPLC); type: physicochemical; settings: dimer of compound A (RRT about 1.34)
Protocol: as §1
After 1.171 mg of compound A monomethanesulfonate and 98.829 mg of milled lactose hydrate (Pharmatose 200 M, DFE Pharma) were mixed, the obtained mixture was filled into hypromellose capsules. […] After the storage, the amount of a related substance (the amount of a dimer of compound A at a relative retention time of about 1.34) was measured under the same conditions as those of Experimental Example 1. […]

| Structure (SMILES) | Water activity value, Opened [1] | Water activity value, Sealed [1] | Water activity value, Difference [1] | Amount of related substance, 25° C., After 1 month ([3]; 25° C.) | Amount of related substance, 40° C., After 1 month ([3]; 40° C.) | Amount of related substance, 25° C. · 60% RH After 1 month [4] | inhibitory action on an epidermal growth factor receptor (EGFR) mutant kinase [2] |
| --- | --- | --- | --- | --- | --- | --- | --- |
| O.OC[C@H]1O[C@@H](O[C@H]2[C@H](O)[C@@H](O)C(O)O[C@@H]2CO)[C@H](O)[C@@H](O)[C@H]1O (stereo partly shown) [Lactose hydrate] | 0.46 | 0.30 | 0.16 |  |  |  |  |
| C=CC(=O)N1CC[C@@H](Oc2nc(Nc3ccc(N4CCC(N5CCN(C)CC5)CC4)cc3)c(C(N)=O)nc2CC)C1 [compound A, 5-{[(3R)-1-Acryloylpyrrolidin-3-yl]oxy}-6-ethyl-3-({4-[4-(4-methylpiperazin-1-yl)piperidin-1-yl]phenyl}amino)-pyrazine-2-carboxamide] |  |  |  |  |  |  | confirmed |
| C=CC(=O)N1CC[C@@H](Oc2nc(Nc3ccc(N4CCC(N5CCN(C)CC5)CC4)cc3)c(C(N)=O)nc2CC)C1.CS(=O)(=O)O [Compound A monomethanesulfonate (alone), 5-{[(3R)-1-acryloylpyrrolidin-3-yl]oxy}-6-ethyl-3-({4-[4-(4-methylpiperazin-1-yl)piperidin-1-yl]phenyl}amino)-pyrazine-2-carboxamide monomethanesulfonate] |  |  |  | 0.03% | 0.03% | 0.44% |  |

Now from value to compound, other results behind:

| Water activity value, Opened [1] | Water activity value, Sealed [1] | Water activity value, Difference [1] | Amount of related substance, 25° C., After 1 month ([3]; 25° C.) | Amount of related substance, 40° C., After 1 month ([3]; 40° C.) | Amount of related substance, 25° C. · 60% RH After 1 month [4] | Structure (SMILES) | inhibitory action on an epidermal growth factor receptor (EGFR) mutant kinase [2] |
| --- | --- | --- | --- | --- | --- | --- | --- |
| 0.45 | 0.35 | 0.10 |  |  |  | OC[C@@H](O)[C@@H](O)[C@H](O)[C@H](O)CO [Mannitol] |  |
| 0.40 | 0.32 | 0.08 |  |  |  | OC[C@H]1O[C@H](O[C@H]2O[C@H](CO)[C@@H](O)[C@H](O)[C@H]2O)[C@H](O)[C@@H](O)[C@@H]1O [Trehalose] |  |
| 0.43 | 0.38 | 0.05 |  |  |  | OC[C@H]1O[C@@](CO)(O[C@H]2O[C@H](CO)[C@@H](O)[C@H](O)[C@H]2O)[C@@H](O)[C@@H]1O [Sucrose] |  |
